One data set has as its system T cells. Description: Proliferation inhibition assay on T cells (PBMC, anti-CD3, IL-2). The data set is classed as cell-based, human. Particulars: Homo sapiens, T-cell, IL-2 10 ng/mL. An excerpt:
The following in vitro assay is to determine the activity of the compounds of the present invention for inhibiting the proliferation of T cells.
The activity is represented by the IC50 value.
The general procedures of the assay are given as follows: first, the PBMC cell line (purchased from Shanghai Blood Center) was centrifuged, the supernatant was removed, and the cells counted. […] Then, the cells were washed 3 times, resuspended, diluted to 2×10^6/mL, and then mixed with recombinant human IL-2 (purchased from Peprotech, Catalog Number: 200-02) to a concentration of 10 ng/mL, and cultured for another 3 days. The cells were washed again 3 times, and diluted to 5×10^5/mL. 80 μL of the cells were seeded in each well of a 96-well cell culture plate. […] To he control wells, 10 μL culture medium were added. The plate was placed in an incubator. After incubating for 1 hr, negative control wells were mixed with 10 μL of culture medium, and the rest of the wells were mixed with IL-2 to a concentration of 10 ng/mL, and incubated continuously for 72 hours. […] IC50 values were calculated from the data of inhibition rates at various concentrations of the test compounds.

The subject of data set [1] is human erythroid leukemia cell line TF-1. Nature of the data set: Proliferation inhibition assay on TF-1 cells mediated by IL-4. The data set is classed as cell-based. Particulars: 10 ng/mL IL-4, 72 hours. An excerpt:
The following in vitro assay is to determine the activity of the compounds of the present invention for inhibiting the proliferation of human erythroid leukemia cell line TF-1.
The activity is represented by the IC50 value, which can not only reflect the activity of a test compound for inhibiting JAK2 and JAK3 kinase, but can also reflect the selectivity of a test compound for JAK2 and JAK3 kinase.
The general procedures of the assay are given as follows: first, the TF-1 cells (purchased from ATCC, Catalog number: CRL 2003) were seeded in a 96-well cell culture plate at a suitable cell concentration (8000 cells/mL medium), and 10 ng/mL IL-4 (Invitrogen, Catalog Number: PHC0044) were added to each well. Then 10× serial concentration gradient of test compounds solutions (10000, 1000, 100, 10, 1 and 0.1 nM) were prepared, and then the 10× compound solutions prepared above were added to the 96-well cell culture plate containing IL-4. After the cell plates were cultured continuously for 72 hours, the activity of the test compounds for inhibiting the cell proliferation was determined by using a Cell Counting Kit-8 (purchased from Dojindo, Catalog Number: CK04). IC50 values were calculated from the data of the inhibition rates at various concentrations of the test compounds.

For the next data set, the target named is JAK3 kinase (Homo sapiens, UniProt P52333). Nature of the data set: Assay for inhibiting JAK3 kinase (in vitro kinase assay). The data set is classed as biochemical. The following applies: 20 μM ATP; read-out: IC50 (JAK3/Bio). The procedure: In vitro activity of compounds of the present invention for inhibiting JAK3 kinase was determined by the following method.

The target of another data set is JAK1 kinase (Homo sapiens, UniProt P23458). Description: Assay for inhibiting JAK1 kinase (in vitro kinase assay). The data set is classed as biochemical. The following applies: 20 μM ATP; read-out: IC50 (JAK1/Bio). The method, then:
In vitro activity of compounds of the present invention for inhibiting JAK1 kinase was determined by the following method.
IC50 values of test compounds was calculated from the data of the test compounds in inhibiting the activity of JAK1 kinase at different concentrations.

Another data set deals with JAK2 kinase (Homo sapiens, UniProt O60674). Description: Assay for inhibiting JAK2 kinase (in vitro kinase assay). The data set is classed as biochemical. Particulars: 20 μM ATP; read-out: IC50 (JAK2/Bio). The procedure: In vitro activity of compounds of the present invention for inhibiting JAK2 kinase was determined by the following method.
Data set [2] can be described thus: Pharmacokinetics assay in rats, intragastric administration. The data set is classed as in vivo, Sprague-Dawley (SD) rats. The following applies: SD rats, 10 mg/kg. The method, then: Rats were used as test animals. […] The pharmacokinetic behavior of the compounds of the present invention was studied and evaluated in rats.
56 Healthy adult Sprague-Dawley (SD) rats, half male and half female, purchased from SINO-BRITSH SIPPR/BK LAB.
The appropriate amount of test compounds were weighed and mixed with 1.0 mL of dimethyl sulfoxide to prepare a 1.0 mg/mL suspension.
After an overnight fast, SD rats were administered intragastrically at a dose of 10.0 mg/kg and an administration volume of 10 mL/kg.
The plasma samples were stored at −20° C. The rats were fed 2 hours after administration.
Content determination of the test compounds in rat plasma after intragastrically administering at different concentrations: 50 μL of rat plasmas taken at various time points after administration were mixed with 50 μL of internal standard solution and 100 μL of methanol and mixed for 3 minutes by a vortexer. The mixture was centrifuged for 10 minutes at 13,500 rpm. 10 μL of the supernatant was taken from the plasma sample and analyzed by LC-MS/MS.

From US10428074B2, “Pyrrole heteroaryl ring derivative and method of use thereof” (Jiangsu Hengrui Medicine Co., Ltd., priority 2011, dated 2019) come the findings set out here.

Chain of JAK3 kinase (P52333 whole entry, looked up): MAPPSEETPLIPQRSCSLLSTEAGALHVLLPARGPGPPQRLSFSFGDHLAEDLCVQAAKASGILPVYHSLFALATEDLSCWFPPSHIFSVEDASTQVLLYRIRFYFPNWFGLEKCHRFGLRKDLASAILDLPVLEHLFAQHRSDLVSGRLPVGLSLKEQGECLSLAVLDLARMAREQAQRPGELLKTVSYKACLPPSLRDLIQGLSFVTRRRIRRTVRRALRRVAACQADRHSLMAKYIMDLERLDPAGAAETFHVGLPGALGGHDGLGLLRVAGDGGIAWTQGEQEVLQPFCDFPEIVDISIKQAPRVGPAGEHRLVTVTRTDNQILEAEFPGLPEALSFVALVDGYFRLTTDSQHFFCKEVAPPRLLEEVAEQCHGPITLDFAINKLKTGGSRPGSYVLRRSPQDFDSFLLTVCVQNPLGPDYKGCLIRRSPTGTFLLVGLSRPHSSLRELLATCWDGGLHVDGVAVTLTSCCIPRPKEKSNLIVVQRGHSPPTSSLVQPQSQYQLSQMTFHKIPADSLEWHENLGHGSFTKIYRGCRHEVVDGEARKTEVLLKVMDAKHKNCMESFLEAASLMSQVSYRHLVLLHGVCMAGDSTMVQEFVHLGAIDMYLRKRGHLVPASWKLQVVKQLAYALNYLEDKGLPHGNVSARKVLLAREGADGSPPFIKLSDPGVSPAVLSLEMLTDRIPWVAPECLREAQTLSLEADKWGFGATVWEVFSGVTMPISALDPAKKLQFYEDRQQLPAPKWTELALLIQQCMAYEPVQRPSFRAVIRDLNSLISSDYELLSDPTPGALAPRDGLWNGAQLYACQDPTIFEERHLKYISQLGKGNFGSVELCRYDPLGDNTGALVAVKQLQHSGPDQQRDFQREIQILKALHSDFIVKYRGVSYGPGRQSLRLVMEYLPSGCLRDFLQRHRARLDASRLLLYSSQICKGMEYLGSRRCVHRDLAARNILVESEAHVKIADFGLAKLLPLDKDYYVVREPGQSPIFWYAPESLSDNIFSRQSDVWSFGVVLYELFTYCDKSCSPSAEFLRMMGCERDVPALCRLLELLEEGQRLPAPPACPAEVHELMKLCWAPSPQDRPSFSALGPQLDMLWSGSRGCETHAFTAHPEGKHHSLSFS
Chain of JAK2 kinase (O60674 whole entry, looked up): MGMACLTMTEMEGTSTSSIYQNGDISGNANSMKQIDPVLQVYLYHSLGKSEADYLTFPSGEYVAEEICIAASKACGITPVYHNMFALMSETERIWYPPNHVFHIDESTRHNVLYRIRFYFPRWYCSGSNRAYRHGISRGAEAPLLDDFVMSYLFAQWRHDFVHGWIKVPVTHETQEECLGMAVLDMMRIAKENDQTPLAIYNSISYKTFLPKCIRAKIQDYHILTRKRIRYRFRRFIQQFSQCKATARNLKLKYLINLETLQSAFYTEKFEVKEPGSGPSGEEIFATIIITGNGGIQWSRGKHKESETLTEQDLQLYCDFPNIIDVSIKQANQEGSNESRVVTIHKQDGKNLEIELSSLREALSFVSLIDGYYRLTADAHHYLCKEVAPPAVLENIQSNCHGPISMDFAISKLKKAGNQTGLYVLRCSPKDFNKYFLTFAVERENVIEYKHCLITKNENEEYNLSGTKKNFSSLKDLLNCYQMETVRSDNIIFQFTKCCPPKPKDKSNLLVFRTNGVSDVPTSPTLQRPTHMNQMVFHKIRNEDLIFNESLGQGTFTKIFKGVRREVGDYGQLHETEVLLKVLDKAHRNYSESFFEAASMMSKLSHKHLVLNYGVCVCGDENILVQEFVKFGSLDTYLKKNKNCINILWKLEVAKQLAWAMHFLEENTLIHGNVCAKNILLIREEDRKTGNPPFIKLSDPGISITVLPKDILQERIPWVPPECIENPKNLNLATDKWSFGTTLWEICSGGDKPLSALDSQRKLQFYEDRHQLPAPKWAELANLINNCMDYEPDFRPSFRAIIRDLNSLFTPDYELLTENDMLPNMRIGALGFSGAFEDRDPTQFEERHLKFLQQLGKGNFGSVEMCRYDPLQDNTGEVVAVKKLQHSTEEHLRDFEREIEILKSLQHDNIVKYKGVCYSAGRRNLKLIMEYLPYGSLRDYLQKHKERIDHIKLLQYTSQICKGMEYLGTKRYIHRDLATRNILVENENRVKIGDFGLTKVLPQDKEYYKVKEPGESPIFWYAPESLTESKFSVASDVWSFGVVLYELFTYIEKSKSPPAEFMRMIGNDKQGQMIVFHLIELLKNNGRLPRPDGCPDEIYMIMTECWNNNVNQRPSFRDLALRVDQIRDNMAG

Consider `CN(c1ncnc2[nH]ccc12)C1C[C@@H]2CCN(C(=O)CO)C[C@@H]2C1` (stereo partly drawn) [Example 37, 2-Hydroxy-1-((4aS,7aR)-6-(methyl(7H-pyrrolo[2,3-d]pyrimidin-4-yl)amino)hexahydro-1H-cyclopenta[c]pyridin-2(3H,4H,4aH,5H,6H,7H,7aH)-yl)ethanone], for which the IC50 in the data set on T cells (72 hours) was 453 nM; in data set [1], 123 nM.

With `CN(c1ncnc2[nH]ccc12)[C@H]1C[C@@H]2CN(C(=O)Nc3nc(OCC(C)(C)O)ns3)C[C@@H]2C1` [Example 99], the IC50 was 110 nM at JAK3 kinase; 0.3 nM on JAK1 kinase; 54 nM with T cells (72 h); 44 nM in data set [1] (TF-1, 72 h); 5 nM at JAK2 kinase.

`CCc1nsc(NC(=O)N2C[C@H]3C[C@H](N(C)c4ncnc5[nH]ccc45)C[C@H]3C2)n1` [Example 48, (3aR,5S,6aS)—N-(3-Ethyl-1,2,4-thiadiazol-5-yl)-5-(methyl(7H-pyrrolo[2,3-d]pyrimidin-4-yl)amino)hexahydrocyclopenta[c]pyrrole-2(1H)-carboxamide]: the IC50 stood at 23 nM in the data set on T cells (72 h) and 27 nM in data set [1]. Also, the “Half-Life t½” value in data set [2] was 2.43 ± 0.75 h.

On to `CC(=O)N1C[C@H]2C[C@H](N(C)c3ncnc4[nH]ccc34)C[C@H]2C1` [Example 11, 1-((3aR,5S,6aS)-5-(Methyl(7H-pyrrolo[2,3-d]pyrimidin-4-yl)amino)hexahydrocyclopenta[c]pyrrol-2(1H)-yl)ethanone], for which the IC50 worked out at 705 nM in the data set with T cells (72 hours) and 507 nM in data set [1].

Take `CN(c1ncnc2[nH]ccc12)[C@H]1C[C@@H]2CN(C(=O)CC#N)C[C@@H]2C1` [Example 8, 3-((3 aR,5S,6aS)-5-(Methyl(7H-pyrrolo[2,3-d]pyrimidin-4-yl)amino)hexahydrocyclopenta[c]pyrrol-2(1H)-yl)-3-oxopropanenitrile]: the IC50 in the data set on T cells (72 hours) was determined as 460 nM; in data set [1], 530 nM.

On to `CN(c1ncnc2[nH]ccc12)[C@H]1C[C@@H]2CN(C(=O)Nc3nncs3)C[C@@H]2C1` [Example 86, (3aR,5S,6aS)-5-(methyl(7H-pyrrolo[2,3-d]pyrimidin-4-yl)amino)-N-(1,3,4-thiadiazol-2-yl)hexahydrocyclopenta[c] pyrrole-2(1H)-carboxamide], for which the IC50 with T cells (72 hours) is 130 nM; in data set [1], 691 nM.

On to `CN(c1ccnc2[nH]ccc12)[C@H]1C[C@@H]2CN(C(=O)CO)C[C@@H]2C1` [Example 112, 2-hydroxy-1-((3aR,5S,6aS)-5-(methyl(1H-pyrrolo[2,3-b]pyridin-4-yl)amino)hexahydrocyclopenta[c]pyrrol-2(1H)-yl) ethanone], for which the IC50 at JAK1 kinase turned out to be 96 nM.

Regarding `C[C@H](O)C(=O)N1C[C@H]2C[C@H](N(C)c3ncnc4[nH]ccc34)C[C@H]2C1` [Example 17, (S)-2-Hydroxy-1-((3aR,5R,6aS)-5-(methyl(7H-pyrrolo[2,3-d]pyrimidin-4-yl)amino)hexahydrocyclopenta[c]pyrrol-2(1H)-yl)propan-1-one], the figures for the IC50 (in the data set with T cells (72 h); in data set [1]) were 29 nM and 165 nM, respectively. The “Half-Life t½” value in data set [2] is on record as 2.03 ± 0.82 h.

Consider `C[C@@H](O)C(=O)N1C[C@H]2C[C@H](N(C)c3ncnc4[nH]ccc34)C[C@H]2C1` [Example 19, (R)-2-Hydroxy-1-((3aR,5S,6aS)-5-(methyl(7H-pyrrolo[2,3-d]pyrimidin-4-yl)amino)hexahydrocyclopenta[c]pyrrol-2(1H)-yl)propan-1-one], for which the results for the IC50 (in the data set on T cells (72 h); in data set [1]) were 724 nM and 711 nM, respectively.

For the compound `COc1nsc(NC(=O)N2C[C@H]3C[C@H](N(C)c4ncnc5[nH]ccc45)C[C@H]3C2)n1` [Example 34, (3aR,5S,6aS)—N-(3-Methoxy-1,2,4-thiadiazol-5-yl)-5-(methyl(7H-pyrrolo[2,3-d]pyrimidin-4-yl)amino)hexahydrocyclopenta[c]pyrrole-2(1H)-carboxamide], the IC50 is 54 nM in the data set with T cells (72 h) and 44 nM in data set [1]. For the same compound, the “Half-Life t½” value in data set [2] came out at 2.10 ± 0.73 h.

Regarding `COc1nsc(NC(=O)N2CC[C@H]3CC(N(C)c4ncnc5[nH]ccc45)C[C@H]3C2)n1` (stereo partly drawn) [Example 38, (4aS,7aR)—N-(3-Methoxy-1,2,4-thiadiazol-5-yl)-6-(methyl(7H-pyrrolo[2,3-d]pyrimidin-4-yl)amino)hexahydro-1H-cyclopenta[c]pyridine-2(3H)-carboxamide], the results for the IC50 (in the data set with T cells (72 hours); in data set [1]) were 71 nM and 160 nM, respectively.

For `CN(c1ncnc2[nH]ccc12)[C@@H]1C[C@@H]2CN(C(=O)Nc3nncs3)C[C@@H]2C1` [Example 73, (3aR,5R,6aS)-5-(methyl(7H-pyrrolo[2,3-d]pyrimidin-4-yl)amino)-N-(1,3,4-thiadiazol-2-yl)hexahydrocyclopenta[c] pyrrole-2(1H)-carboxamide], the values for the IC50 (in the data set with T cells (72 hours); in data set [1]) were 518 nM and 476 nM, respectively.

Consider `CN(c1ncnc2[nH]ccc12)[C@H]1C[C@@H]2CN(C(=O)CO)C[C@@H]2C1` [Example 6, 2-Hydroxy-1-((3aR,5S,6aS)-5-(methyl(7H-pyrrolo[2,3-d]pyrimidin-4-yl)amino)hexahydrocyclopenta[c]pyrrol-2(1H)-yl)ethanone], for which the IC50 is 414 nM with T cells (72 h) and 457 nM in data set [1] (TF-1, 72 h).
